This passage reports IC50 results from patent US20250134869A1, “Pyrrolo[2,3-d]pyrimidinyl, Pyrrolo[2,3-b]pyrazinyl and Pyrrolo[2,3-d]pyridinyl Acryla-mides” (Pfizer Inc, priority 2021, published 2025).

This test has as its target JAK3 enzyme (Homo sapiens (Human), UniProt P52333). Nature of the test: JAK Caliper Enzyme Assay at 4 μM or 1 mM ATP. The format is biochemical.
[1] abbreviates: read-out: JAK3 (4 μM ATP) IC50, 4 μM ATP.
Where [2] appears, read: read-out: JAK3 (1 mM ATP) IC50, 1 mM ATP.

Structures are written as SMILES. Like-named read-outs stand apart in the source and are kept apart here.

Chain of JAK3 enzyme (P52333 whole entry, species assumed): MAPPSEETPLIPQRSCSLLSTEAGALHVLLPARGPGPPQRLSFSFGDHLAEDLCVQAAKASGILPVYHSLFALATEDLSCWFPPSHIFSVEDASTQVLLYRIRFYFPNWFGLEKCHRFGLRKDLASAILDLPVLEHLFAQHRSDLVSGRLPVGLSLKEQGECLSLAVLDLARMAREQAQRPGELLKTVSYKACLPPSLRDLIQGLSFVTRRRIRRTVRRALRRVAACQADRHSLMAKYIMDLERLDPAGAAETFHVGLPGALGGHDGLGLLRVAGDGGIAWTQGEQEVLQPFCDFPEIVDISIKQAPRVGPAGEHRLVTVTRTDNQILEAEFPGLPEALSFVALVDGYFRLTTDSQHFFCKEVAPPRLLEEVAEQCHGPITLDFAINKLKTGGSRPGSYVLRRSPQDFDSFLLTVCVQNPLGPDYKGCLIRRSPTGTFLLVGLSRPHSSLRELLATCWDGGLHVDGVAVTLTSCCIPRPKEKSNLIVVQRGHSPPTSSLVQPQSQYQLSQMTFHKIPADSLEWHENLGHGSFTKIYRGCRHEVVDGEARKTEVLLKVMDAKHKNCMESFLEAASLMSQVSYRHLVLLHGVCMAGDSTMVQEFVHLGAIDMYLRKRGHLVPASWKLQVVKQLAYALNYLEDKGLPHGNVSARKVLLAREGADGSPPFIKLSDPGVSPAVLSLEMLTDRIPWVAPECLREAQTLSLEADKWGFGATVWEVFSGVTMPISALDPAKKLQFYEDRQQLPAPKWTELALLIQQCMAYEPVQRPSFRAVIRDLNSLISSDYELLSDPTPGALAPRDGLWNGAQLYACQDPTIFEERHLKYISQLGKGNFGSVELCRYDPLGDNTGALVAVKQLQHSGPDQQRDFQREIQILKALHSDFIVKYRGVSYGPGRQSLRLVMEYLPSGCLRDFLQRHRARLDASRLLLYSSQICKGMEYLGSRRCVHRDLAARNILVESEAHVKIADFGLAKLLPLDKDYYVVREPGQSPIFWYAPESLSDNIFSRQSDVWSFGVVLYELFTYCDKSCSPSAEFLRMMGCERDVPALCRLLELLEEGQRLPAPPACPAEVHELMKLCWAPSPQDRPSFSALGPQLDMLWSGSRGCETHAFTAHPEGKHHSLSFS

Consider `C=C(C)C(=O)N1CCC[C@@H](Nc2ncnc3[nH]cc(CCOC)c23)C1` [Example 110, 1-[(3R)-3-{[5-(2-methoxyethyl)-7H-pyrrolo[2,3-d]pyrimidin-4-yl]amino}piperidin-1-yl]-2-methylprop-2-en-1-one], for which, under setting [1], the IC50 came out at 1430 nM.

On to `C=CC(=O)N1CCC(Nc2cnc3[nH]cc(C(=O)N(C)C4CC4)c3n2)CC1` [Example 286, 2-[(1-acryloylpiperidin-4-yl)amino]-N-cyclopropyl-N-methyl-5H-pyrrolo[2,3-b]pyrazine-7-carboxamide], for which the IC50 runs as follows: under setting [1], 15.9 nM; under setting [2], 814 nM.

Take `C=CC(=O)N1CCCC(Nc2ncnc3[nH]ccc23)C1` (centres unmarked) [Example 103, 1-[3-(7H-pyrrolo[2,3-d]pyrimidin-4-ylamino)piperidin-1-yl]prop-2-en-1-one]: the IC50 under setting [1] worked out at 4.7 nM.

Regarding `C/C=C/C(=O)N1CCC[C@@H](N(C)c2ncnc3[nH]cc(CCOC)c23)C1` [Example 135, (2E)-1-[(3R)-3-{[5-(2-Methoxyethyl)-7H-pyrrolo[2,3-d]pyrimidin-4-yl](methyl)amino}-piperidin-1-yl]but-2-en-1-one], the IC50 under setting [1] is greater than 10000 nM.

Consider `C=CC(=O)N1CCN(c2cnc3[nH]cc(C(=O)NC(C)C)c3n2)C(C)(C)C1` [Example 312, 2-(4-acryloyl-2,2-dimethylpiperazin-1-yl)-N-(propan-2-yl)-5H-pyrrolo[2,3-b]pyrazine-7-carboxamide], for which the IC50 under setting [1] was determined as 4.5 nM and the IC50 under setting [2] was 592 nM.

`C=CC(=O)N1CCC(Nc2cnc3[nH]cc(-c4ccncc4F)c3n2)CC1` [Example 200, 1-(4-{[7-(3-fluoropyridin-4-yl)-5H-pyrrolo[2,3-b]pyrazin-2-yl]amino}piperidin-1-yl)prop-2-en-1-one]: the IC50 under setting [1] stood at 0.8 nM and the IC50 under setting [2] came to 88.9 nM.

For the molecule `C=CC(=O)N1CCC(Nc2cnc3[nH]cc(C(=O)N[C@@H]4CCC[C@H]4F)c3n2)CC1` [Example 237, 2-[(1-acryloylpiperidin-4-yl)amino]-N-[(1R,2R)-2-fluorocyclopentyl]-5H-pyrrolo[2,3-b]pyrazine-7-carboxamide], the IC50 was determined as 0.2 nM under setting [1] and 7.8 nM under setting [2].

In the case of `C=CC(=O)N1CC[C@H]2CN(c3ncnc4[nH]ccc34)[C@H]2C1` [Example 134, 1-[(1R,6S)-8-(7H-Pyrrolo[2,3-d]pyrimidin-4-yl)-3,8-diazabicyclo[4.2.0]oct-3-yl]prop-2-en-1-one], under setting [1], the IC50 stood at 71.2 nM.

Regarding `C=CC(=O)N1CCC(Nc2cnc3[nH]cc(C(=O)NC4CCCC(F)(F)C4)c3n2)CC1` (centres unmarked) [Example 236, 2-[(1-acryloylpiperidin-4-yl)amino]-N-(3,3-difluorocyclohexyl)-5H-pyrrolo[2,3-b]pyrazine-7-carboxamide], the IC50 runs as follows: under setting [1], 0.1 nM; under setting [2], 8.3 nM.

Turning to `C=CC(=O)N1CC[C@@H](Nc2cnc3[nH]cc(C(=O)NC(C)C)c3n2)[C@@H](OC)C1` [Example 302, 2-{[(3S,4R)-1-acryloyl-3-methoxypiperidin-4-yl]amino}-N-(propan-2-yl)-5H-pyrrolo[2,3-b]pyrazine-7-carboxamide], the half-inhibitory concentration (IC50) runs as follows: under setting [1], 1.2 nM; under setting [2], 49.4 nM.

Turning to `C=CC(=O)N1CC[C@@]2(C)CCN(c3ncnc4[nH]ccc34)[C@H]2C1` [Example 122, 1-((3aR,7aR)-3a-Methyl-1-(7H-pyrrolo[2,3-d]pyrimidin-4-yl)hexahydro-1H-pyrrolo[2,3-c]pyridin-6 (2H)-yl)prop-2-en-1-one], the IC50 by setting is: under setting [1], 75.6 nM; under setting [2], greater than 10000 nM.

With `C=CC(=O)N1CCC(Nc2cnc3[nH]cc(C(=O)NCCOC)c3n2)CC1` [Example 275, 2-[(1-acryloylpiperidin-4-yl)amino]-N-(2-methoxyethyl)-5H-pyrrolo[2,3-b]pyrazine-7-carboxamide], the IC50 under setting [1] was determined as 0.4 nM and the IC50 under setting [2] was 13.1 nM.

On to `C=CC(=O)N[C@H]1C[C@H](Nc2cnc3[nH]cc(C(=O)NC(C)C)c3n2)C1` [Example 198, 2-{[trans-3-(acryloylamino)cyclobutyl]amino}-N-(propan-2-yl)-5H-pyrrolo[2,3-b]pyrazine-7-carboxamide], for which the IC50 under setting [1] was 1 nM and the IC50 under setting [2] worked out at 77.6 nM.

On to `C/C=C/C(=O)N1CCC[C@@H](Nc2ncnc3[nH]cc(C(=O)NCCOC)c23)C1` [Example 149, 4-({(3R)-1-[(2E)-but-2-enoyl]piperidin-3-yl}amino)-N-(2-methoxyethyl)-7H-pyrrolo[2,3-d]pyrimidine-5-carboxamide], for which the IC50 under setting [1] is greater than 10000 nM.

On to `C=CC(=O)N1[C@H](C)CN(c2cnc3[nH]cc(C(=O)NC(C)C)c3n2)C[C@@H]1C` [Example 306, 2-[(3R,5S)-4-acryloyl-3,5-dimethylpiperazin-1-yl]-N-(propan-2-yl)-5H-pyrrolo[2,3-b]pyrazine-7-carboxamide], for which the IC50 reads like this: under setting [1], 3.9 nM; under setting [2], 326 nM.

Consider `C=CC(=O)N1CCN(c2cnc3[nH]cc(C(=O)NC(C)C)c3n2)[C@H](CC)C1` [Example 321, 2-[(2R)-4-acryloyl-2-ethylpiperazin-1-yl]-N-(propan-2-yl)-5H-pyrrolo[2,3-b]pyrazine-7-carboxamide], for which the IC50 under setting [1] stood at 0.9 nM and the IC50 under setting [2] was 144 nM.

Take `C=CC(=O)N1CCN(c2cnc3[nH]cc(C(=O)NC(C)C)c3n2)[C@H](C)C1` [Example 307, 2-[(2R)-4-acryloyl-2-methylpiperazin-1-yl]-N-(propan-2-yl)-5H-pyrrolo[2,3-b]pyrazine-7-carboxamide]: the IC50 is, setting by setting: under setting [1], 1.1 nM; under setting [2], 128 nM.

Turning to `C=CC(=O)N1CCC[C@@H](Nc2nc(Nc3cccnc3)nc3[nH]ccc23)C1` [Example 63, 1-[(3R)-3-{[2-(Pyridin-3-ylamino)-7H-pyrrolo[2,3-d]pyrimidin-4-yl]amino}piperidin-1-yl]prop-2-en-1-one], the IC50 reads like this: under setting [1], 9.1 nM; under setting [2], 672 nM.

Regarding `C=CC(=O)N1CCC(Oc2cnc3[nH]cc(-c4cccc(C(=O)NC)c4)c3n2)CC1` [Example 227, 3-{2-[(1-acryloylpiperidin-4-yl)oxy]-5H-pyrrolo[2,3-b]pyrazin-7-yl}-N-methylbenzamide], the IC50 reads like this: under setting [1], 0.9 nM; under setting [2], 71.8 nM.

Consider `C=CC(=O)N1CCC(Nc2cnc3[nH]cc(C(=O)NC(C)C4CC4)c3n2)CC1` (centres unmarked) [Example 288, 2-[(1-acryloylpiperidin-4-yl)amino]-N-(1-cyclopropylethyl)-5H-pyrrolo[2,3-b]pyrazine-7-carboxamide], for which the IC50 under setting [1] was determined as 0.2 nM and the IC50 under setting [2] is 7.8 nM.

`C=CC(=O)N1CCC(Nc2cnc3[nH]cc(-c4cccnc4)c3n2)CC1` [Example 205, 1-(4-{[7-(pyridin-3-yl)-5H-pyrrolo[2,3-b]pyrazin-2-yl]amino}piperidin-1-yl)prop-2-en-1-one]: the IC50 came out at 0.5 nM under setting [1] and 14.8 nM under setting [2].

Regarding `C=CC(=O)N1CCC[C@@H](Nc2ncnc3[nH]cc(-c4ccc5c(cnn5C)c4)c23)C1` [Example 34, 1-[(3R)-3-{[5-(1-methyl-1H-indazol-5-yl)-7H-pyrrolo[2,3-d]pyrimidin-4-yl]amino}piperidin-1-yl]prop-2-en-1-one], the IC50 is, setting by setting: under setting [1], 54.4 nM; under setting [2], 4820 nM.

In the case of `C=C(F)C(=O)N1CCC[C@@H](Nc2ncnc3[nH]ccc23)C1` [Example 91, 2-fluoro-1-[(3R)-3-(7H-pyrrolo[2,3-d]pyrimidin-4-ylamino)piperidin-1-yl]prop-2-en-1-one], the concentration for half-maximal inhibition (IC50) is, setting by setting: under setting [1], 56.5 nM; under setting [2], 4650 nM.
